For orientation: Kd means the free concentration of one partner at which half of the binding sites on the other are occupied at equilibrium, for simple one-to-one binding. A low value points to tighter binding.

Molecules are shown by their SMILES. Like-named read-outs stand apart in the source and are kept apart here.

Here are results for two compounds from publication doi:10.1101/2025.03.23.644840v2 (biorxiv, 2025).

What all share (assay): isothermal titration calorimetry
A general note: Isothermal titration calorimetry measures the heat released or taken up as one component is titrated into another.

One experiment has as its target ecLacI (Escherichia coli, UniProt P03023). Type of experiment: binding.
A further experiment deals with ΔAnc1. The arrangement: species or system synthetic construct. The conditions noted are these: 25 °C; 20 mM HEPES, 150 mM NaCl, 2% glycerol, pH 8; 1:1 model.
The target of another experiment is Anc1. The class given is binding, synthetic construct. The conditions noted are these: 25 °C; 20 mM HEPES, 150 mM NaCl, 2% glycerol, pH 8; 1:1 model.
The target in the next experiment is Anc4. The class given is binding, synthetic construct. The following applies: 25 °C; 20 mM HEPES, 150 mM NaCl, 2% glycerol, pH 8; 1:1 model.
Another experiment deals with Anc3. The class given is binding, synthetic construct. The following applies: 25 °C; 20 mM HEPES, 150 mM NaCl, 2% glycerol, pH 8; 1:1 model.
A further experiment concerns the target Anc2. Type of experiment: binding, synthetic construct. The following applies: 25 °C; 20 mM HEPES, 150 mM NaCl, 2% glycerol, pH 8; 1:1 model.
The target in the next experiment is ΔAnc4. The arrangement: species or system synthetic construct. The following applies: 25 °C; 20 mM HEPES, 150 mM NaCl, 2% glycerol, pH 8; 1:1 model.

Chain of ecLacI (P03023 whole entry): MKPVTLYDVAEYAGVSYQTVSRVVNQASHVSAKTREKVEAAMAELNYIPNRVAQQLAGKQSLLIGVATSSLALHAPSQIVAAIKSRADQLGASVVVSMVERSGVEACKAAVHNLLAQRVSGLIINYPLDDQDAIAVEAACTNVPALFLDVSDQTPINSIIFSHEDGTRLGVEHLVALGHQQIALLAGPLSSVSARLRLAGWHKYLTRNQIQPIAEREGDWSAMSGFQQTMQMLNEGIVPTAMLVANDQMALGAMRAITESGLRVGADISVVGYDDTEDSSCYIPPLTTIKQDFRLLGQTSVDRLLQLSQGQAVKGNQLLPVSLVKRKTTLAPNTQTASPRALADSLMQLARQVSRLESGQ

In the case of `C[C@H]1OC(O)[C@H](O)[C@@H](O)[C@H]1O` (stereo partly drawn) [D-fucose], the Kd came to 37000 µM at ecLacI (25 °C, 20 mM HEPES, 150 mM NaCl, 2% glycerol, pH 8, 1:1 model); 420 µM on ΔAnc1; 127 µM at Anc1; 15000 µM on Anc4.
With `CO[C@@H]1O[C@H](CO)[C@H](O)[C@H](O)[C@H]1O` [BMDG], the Kd at Anc3 amounted to 2500 µM; on ecLacI, 306 µM; on Anc2, 2200 µM; at Anc1 it was 4000 µM; on ΔAnc4 it was 430 µM; at Anc4, 550 µM.
